# Test results as given in paper PMC9760444, “Direct targeting of sEH with alisol B alleviated the apoptosis, inflammation, and oxidative stress in cisplatin-induced acute kidney injury” (International Journal of Biological Sciences, 2023).
# Target: T1, soluble epoxide hydrolase (sEH) (Homo sapiens, UniProt P34913)
# T1 construct: gene EPHX2; Recombinant human sEH
# T1 sequence (P34913 1-555): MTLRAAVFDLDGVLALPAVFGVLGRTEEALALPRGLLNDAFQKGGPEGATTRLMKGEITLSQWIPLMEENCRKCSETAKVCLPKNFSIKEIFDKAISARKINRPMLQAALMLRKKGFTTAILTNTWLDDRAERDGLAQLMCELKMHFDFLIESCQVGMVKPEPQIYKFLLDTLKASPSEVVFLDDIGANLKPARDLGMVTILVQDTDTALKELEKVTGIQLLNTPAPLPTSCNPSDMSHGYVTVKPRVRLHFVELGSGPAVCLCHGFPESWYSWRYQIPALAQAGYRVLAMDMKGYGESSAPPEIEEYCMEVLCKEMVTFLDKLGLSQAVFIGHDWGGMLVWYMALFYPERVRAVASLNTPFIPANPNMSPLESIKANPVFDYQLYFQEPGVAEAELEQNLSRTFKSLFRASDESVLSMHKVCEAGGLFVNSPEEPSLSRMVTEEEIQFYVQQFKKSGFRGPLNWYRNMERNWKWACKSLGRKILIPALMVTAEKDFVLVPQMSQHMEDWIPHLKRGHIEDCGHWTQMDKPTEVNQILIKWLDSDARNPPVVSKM
# Assay: SPR (Biacore T200); supported by inhibition kinetics (Ki […]), pull-down, CETSA, SIP, DARTS
# Format: binding
smiles,measurement,value
C[C@H](C[C@H](O)[C@H]1OC1(C)C)C1=C2C[C@H](O)[C@H]3[C@@]4(C)CCC(=O)C(C)(C)[C@@H]4CC[C@]3(C)[C@@]2(C)CC1 [alisol B],Kd,1.32 µM
